In patent publication US11866450B2, “Modulators of Cystic Fibrosis Transmembrane Conductance regulator, pharmaceutical compositions, methods of treatment, and process for making the modulators” (priority 2018, dated 2024):
Several values for one entry are separate records, joined by “and”; a condition that tells them apart may be missing. Equal values may be shown once. Read-outs that look alike come from different tables or passages of the source.

Experiments:
[1] = snar bond, DMSO
[2] = molecular target: CFTR-mediated chloride transport (Homo sapiens, UniProt P13569); format: cell-based; details: enteroid cells incubated with test compound 18-24 hours, acute 10 μM forskolin and 300 nM Compound III; for Max. Activity: % of chloride transport with 3 μM Compound A, 3 μM Compound II and 300 nM acute Compound III triple combination control
Chain of CFTR-mediated chloride transport (P13569 whole entry, looked up): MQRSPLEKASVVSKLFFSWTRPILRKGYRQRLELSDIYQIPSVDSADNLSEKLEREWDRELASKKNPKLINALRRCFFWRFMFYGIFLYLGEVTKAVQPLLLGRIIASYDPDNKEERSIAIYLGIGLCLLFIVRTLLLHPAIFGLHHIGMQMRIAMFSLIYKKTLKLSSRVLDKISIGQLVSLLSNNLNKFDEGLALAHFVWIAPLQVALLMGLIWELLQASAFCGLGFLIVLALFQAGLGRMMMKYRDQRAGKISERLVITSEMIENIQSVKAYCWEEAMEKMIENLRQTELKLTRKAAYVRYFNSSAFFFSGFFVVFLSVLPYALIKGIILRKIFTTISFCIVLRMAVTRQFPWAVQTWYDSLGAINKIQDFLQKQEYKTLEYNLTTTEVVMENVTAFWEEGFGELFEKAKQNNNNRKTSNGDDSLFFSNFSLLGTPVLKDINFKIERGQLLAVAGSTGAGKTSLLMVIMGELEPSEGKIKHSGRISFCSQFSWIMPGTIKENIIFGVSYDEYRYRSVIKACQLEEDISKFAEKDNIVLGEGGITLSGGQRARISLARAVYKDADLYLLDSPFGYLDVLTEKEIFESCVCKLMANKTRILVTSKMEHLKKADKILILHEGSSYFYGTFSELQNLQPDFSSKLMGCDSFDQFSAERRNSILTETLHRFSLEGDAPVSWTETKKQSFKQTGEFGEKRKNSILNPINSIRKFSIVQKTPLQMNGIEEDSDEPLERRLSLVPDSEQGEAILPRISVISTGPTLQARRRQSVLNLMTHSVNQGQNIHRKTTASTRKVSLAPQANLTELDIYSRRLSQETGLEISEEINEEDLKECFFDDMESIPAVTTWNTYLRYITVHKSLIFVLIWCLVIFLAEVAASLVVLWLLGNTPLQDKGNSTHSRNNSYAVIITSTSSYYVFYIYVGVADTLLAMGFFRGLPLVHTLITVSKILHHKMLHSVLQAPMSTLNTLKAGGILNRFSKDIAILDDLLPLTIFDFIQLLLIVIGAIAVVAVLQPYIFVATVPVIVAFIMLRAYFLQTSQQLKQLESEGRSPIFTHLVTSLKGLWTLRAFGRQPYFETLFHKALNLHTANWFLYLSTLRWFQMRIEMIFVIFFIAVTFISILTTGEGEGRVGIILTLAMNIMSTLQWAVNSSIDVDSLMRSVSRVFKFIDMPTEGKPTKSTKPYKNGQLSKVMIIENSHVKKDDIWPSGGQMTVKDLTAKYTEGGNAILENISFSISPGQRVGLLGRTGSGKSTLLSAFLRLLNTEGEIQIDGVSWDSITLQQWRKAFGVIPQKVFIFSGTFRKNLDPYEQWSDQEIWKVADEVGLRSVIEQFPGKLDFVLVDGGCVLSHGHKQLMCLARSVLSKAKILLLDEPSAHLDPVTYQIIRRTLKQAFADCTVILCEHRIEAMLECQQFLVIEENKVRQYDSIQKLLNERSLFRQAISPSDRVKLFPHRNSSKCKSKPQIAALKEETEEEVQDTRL
How it was run: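 Membrane-potential fluorescence AUC over 15 min quantified CFTR chloride transport after acute forskolin (10 μM), IBMX (100 μM) and Compound III (300 nM) in chloride-free buffer. Human enteroid cells were pretreated with compound for 18–24 h; % Activity is relative to 3 μM Compound A + 3 μM Compound II + 300 nM Compound III.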

With `Cc1ccc2nc1S(=O)(=O)NC(=O)c1ccc(-n3ccc(OCCC4(C(F)(F)F)CC4)n3)nc1N1CC(CCCN2)CC1(C)C` (stereo not drawn) [Compound 129, 12,12,22-Trimethyl-8-(3-{2-[1-(trifluoromethyl)cyclopropyl]ethoxy}-1H-pyrazol-1-yl)-2λ^6-thia-3,9,11,18,23-pentaazatetracyclo[17.3.1.111,14.05,10]tetracosa-1(23),5(10),6,8,19,21-hexaene-2,2,4-trione] the ring closure, yield after HPLC ([1]; from Cc1ccc(NCCCC2CN(C(=O)OC(C)(C)C)C(C)(C)C2)nc1S(=O)(=O)NC(=O)c1ccc(-n2ccc(OCCC3(C(F)(F)F)CC3)n2)nc1Cl, 15-membered ring, K2CO3/CsF/3A MS, 79.1 mM, 140.0 °C, 2 steps) was 34%, the EC50 [2] was < 1000 nM and the “Max. Activity” value [2] was “+++ (+++ is >60%)”.

In the case of `CC1(C)CC2CCCCNc3ccc(cn3)S(=O)(=O)NC(=O)c3ccc(-n4ccc(OCCC(C5CC5)C5CC5)n4)nc3N1C2` (stereo not drawn) [Compound 130, 8-[3-(3,3-Dicyclopropylpropoxy)-1H-pyrazol-1-yl]-12,12-dimethyl-2λ^6-thia-3,9,11,19,21-pentaazatetracyclo[18.2.2.111,14.05,10]pentacosa-1(22),5,7,9,20,23-hexaene-2,2,4-trione], the ring closure, yield after HPLC ([1]; from CC(C)(C)OC(=O)N1CC(CCCCNc2ccc(S(=O)(=O)NC(=O)c3ccc(-n4ccc(OCCC(C5CC5)C5CC5)n4)nc3Cl)cn2)CC1(C)C, 17-membered ring, K2CO3/CsF/3A MS, 107.7 mM, 160.0 °C, 2 steps) is reported as 15%, the EC50 [2] is reported as < 1000 nM and the “Max. Activity” value [2] is reported as “+++ (+++ is >60%)”.

For `CC1(C)CCC2CCCNc3cccc(n3)S(=O)(=O)NC(=O)c3ccc(-n4ccc(OCCC(C5CC5)C5CC5)n4)nc3N21` (stereo not drawn) [Compound 131, 8-[3-(3,3-Dicyclopropylpropoxy)-1H-pyrazol-1-yl]-12,12-dimethyl-2λ^6-thia-3,9,11,19,24-pentaazatetracyclo[18.3.1.05,10.011,15]tetracosa-1(23),5(10),6,8,20(24),21-hexaene-2,2,4-trione], the ring closure, yield after HPLC ([1]; from CC(C)(C)OC(=O)N1C(CCCNc2cccc(S(=O)(=O)NC(=O)c3ccc(-n4ccc(OCCC(C5CC5)C5CC5)n4)nc3Cl)n2)CCC1(C)C, 14-membered ring, K2CO3/CsF/3A MS, 94.1 mM, 150.0 °C, 2 steps) was 39%, the EC50 [2] was < 1000 nM and the “Max. Activity” value [2] was “++ (++ is 30-60%)”.

With `CC1(C)CC2CCCn3ccc(n3)S(=O)(=O)NC(=O)c3ccc(-n4ccc(OCCC(C5CC5)C5CC5)n4)nc3N1C2` (stereo not drawn) [Compound 141, 4-[3-(3,3-Dicyclopropylpropoxy)-1H-pyrazol-1-yl]-20,20-dimethyl-10λ^6-thia-1,3,9,14,22-pentaazatetracyclo[16.2.1.111,14.02,7]docosa-2,4,6,11(22),12-pentaene-8,10,10-trione] the ring closure, yield after HPLC ([1]; from CC(C)(C)OC(=O)N1CC(CCCn2ccc(S(=O)(=O)NC(=O)c3ccc(-n4ccc(OCCC(C5CC5)C5CC5)n4)nc3Cl)n2)CC1(C)C, 14-membered ring, K2CO3/CsF/3A MS, 66.2 mM, 150.0 °C, 2 steps) was 23% and 22%, the EC50 [2] was < 1000 nM and the “Max. Activity” value [2] was “+++ (+++ is >60%)”.

In the case of `CC1(C)CCC2CCCOc3cccc(n3)S(=O)(=O)NC(=O)c3ccc(-n4ccc(OCCC5(C(F)(F)F)CC5)n4)nc3N21` (stereo not drawn) [Compound 147, 12,12-dimethyl-8-(3-{2-[1-(trifluoromethyl)cyclopropyl]ethoxy}-1H-pyrazol-1-yl)-19-oxa-2λ^6-thia-3,9,11,24-tetraazatetracyclo[18.3.1.05,10.011,15]tetracosa-1(24),5(10),6,8,20,22-hexaene-2,2,4-trione], the ring closure, yield after HPLC ([1]; from CC(C)(C)OC(=O)N1C(CCCOc2cccc(S(=O)(=O)NC(=O)c3ccc(-n4ccc(OCCC5(C(F)(F)F)CC5)n4)nc3Cl)n2)CCC1(C)C, 14-membered ring, K2CO3/CsF/3A MS, 66.1 mM, 140.0 °C, 2 steps) is reported as 5%, the EC50 [2] is reported as < 1000 nM and the “Max. Activity” value [2] is reported as “++ (++ is 30-60%)”.

With `CC1(C)CC2CN1c1nc(-n3ccc(OCCC4(C(F)(F)F)CC4)n3)ccc1C(=O)NS(=O)(=O)c1ccnn1CCO2` (stereo not drawn) [Compound 152, 21,21-dimethyl-4-(3-{2-[1-(trifluoromethyl)cyclopropyl]ethoxy}-1H-pyrazol-1-yl)-18-oxa-10λ^6-thia-1,3,9,14,15-pentaazatetracyclo[17.2.1.02,7.011,15]docosa-2(7),3,5,11,13-pentaene-8,10,10-trione] the ring closure, yield after HPLC ([1]; from CC(C)(C)OC(=O)N1CC(OCCn2ccc(S(=O)(=O)NC(=O)c3ccc(-n4ccc(OCCC5(C(F)(F)F)CC5)n4)nc3Cl)n2)CC1(C)C, 13-membered ring, K2CO3/CsF/3A MS, 62.0 mM, 140.0 °C, 2 steps) was 34%, the EC50 [2] was > 3000 nM and the “Max. Activity” value [2] was “+ (+ is <30%)”.

In the case of `CC1(C)CC2CN1c1nc(-n3ccc(OCCCC4(C(F)(F)F)CC4)n3)ccc1C(=O)NS(=O)(=O)c1cccc(n1)NCCO2` (stereo not drawn) [Compound 157], the ring closure, yield after HPLC ([1]; from CC1(C)CC(OCCNc2cccc(S(=O)(=O)NC(=O)c3ccc(-n4ccc(OCCCC5(C(F)(F)F)CC5)n4)nc3Cl)n2)CN1, 15-membered ring, K2CO3/CsF/4A MS, 105.0 mM, 150.0 °C) is reported as 34%, the EC50 [2] is reported as < 1000 nM and the “Max. Activity” value [2] is reported as “+++ (+++ is >60%)”.

For `CN1CCCC2CN(c3nc(-n4ccc(OCCC(C5CC5)C5CC5)n4)ccc3C(=O)NS(=O)(=O)c3cccc1n3)C(C)(C)C2` (stereo not drawn) [Compound 189, 8-[3-(3,3-Dicyclopropylpropoxy)-1H-pyrazol-1-yl]-12,12,18-trimethyl-2λ^6-thia-3,9,11,18,23-pentaazatetracyclo[17.3.1.111,14.05,10]tetracosa-1(22),5,7,9,19(23),20-hexaene-2,2,4-trione], the ring closure, yield after HPLC ([1]; from CN(CCCC1CNC(C)(C)C1)c1cccc(S(=O)(=O)NC(=O)c2ccc(-n3ccc(OCCC(C4CC4)C4CC4)n3)nc2Cl)n1, 15-membered ring, K2CO3/CsF/4A MS, 24.8 mM, 130.0 °C, 2 steps) was 60%, the EC50 [2] was < 1000 nM and the “Max. Activity” value [2] was “+++ (+++ is >60%)”.
